Experimental data published in patent US20080241177A1 (priority 2003, published 2008).

Experiments:
serum antibodies [1] = experiment: Immunization of sheep with the vaccine, anti-peptide ELISA; details: for Response to peptide using the polyclonal sheep sera or rabbit sera: polyclonal sheep sera (FIG. 2A) or rabbit sera (data not shown); for Polyclonal sera with reactivity to peptide obtained from immunized sheep: 200 μg peptide mixture in CpG DNA adjuvant, prime and boost
[2] = Delayed type hypersensitivity (DTH) testing; assay type: in vivo, human; details: for Induration area, DTH testing: 48 hours following intradermal injection of individual peptide, after four vaccinations; for Number of patients with a peptide-specific DTH response: six trial patients who underwent DTH testing
Method: Delayed type hypersensitivity (DTH) testing was carried out 1 month after the final vaccination. […] Induration of […]10 mm^2 at 48 hours after injection was considered positive.

serum antibodies [3] = experiment: ELISA for serum antibodies specific for the individual vaccine peptides, human sera; details: for Number of individuals with a humoral response to the vaccine peptides, Normal controls n = 30 / Percent of individuals with a humoral response to the vaccine peptides, Normal controls n = 30: n = 30, not vaccinated
PBMCs [4] = experiment: (3H)-thymidine proliferation assay; assay type: cell-based, human; details: for stimulation index: 10 μg/ml peptide
Method: FIG. 4. Cell-mediated response to peptide 5 in trial subject 016, measured over the course of the vaccination schedule. Patient PBMCs were stimulated with 10 μg/ml peptide 5, incubated in vitro for 6 days, pulsed with ^3H-thymidine for 18 hours and then proliferation was assessed by ^3H-thymidine incorporation.
Peripheral blood mononuclear cells (PBMCs) were plated at a concentration of 1×10^5 cells/well for thymidine proliferation and ELISpot assays and at 1×10^6 cells/well (24 well plates) for the CFSE proliferation assay. ELISpot plates were coated with mouse anti-human IFN-γ antibody (Diaclone, France) and cells for CFSE assay were stained with 5 μM CFSE-FITC (Molecular Probes, Eugene, Oreg.). All PBMCs were in RPMI supplemented with 2 mM L-glutamine, 10 mM HEPES, 100 U/mL penicillin/streptomycin and 10% human AB serum (Australian Red Cross Blood Service).
The recall antigens CMV lysate, (1/2000 dilution; BioWhittaker, Walkersville, Md.) and tetanus toxoid (2.5 Lfu/ml; CSL) were also tested. PBMCs were incubated at 37° C. and 5% CO2 atmosphere for 20 hours (ELISpot) or 6 days (proliferation assays).
In the thymidine proliferation assay, cells were pulsed with 0.5 μCi/well [methyl-^3H]-thymidine (Amersham, Buckinghamshire, UK) and harvested 18 hours later. [^3H]-thymidine incorporation was measured by liquid scintillation counting. A sample was considered to be positive when the stimulation index^22 for each well in the quadruplicate sample exceeded the mean of unstimulated cells by at least three standard deviations.

PBMCs [5] = experiment: CFSE proliferation assay; assay type: cell-based, human; details: subject 016, visit 5
[6] = non-trial cancer controls, n = 54, sera 1:25 dilution
[7] = trial subjects who completed four vaccinations, n = 6, detectable response at any time point considered positive
[8] = patient 016, visit 5 (1 month after vaccination 4)

Row | Substance | Response to peptide using the polyclonal sheep sera or rabbit sera (serum antibodies [1]) | Polyclonal sera with reactivity to peptide obtained from immunized sheep (serum antibodies [1]; two sheep) | Induration area, DTH testing ([2]; patient 012) | Induration area, DTH testing ([2]; patient 014) | Induration area, DTH testing ([2]; patient 015) | Induration area, DTH testing ([2]; patient 016) [mm^2] | Induration area, DTH testing ([2]; patient 017) [mm^2] | Induration area, DTH testing ([2]; patient 018) | Number of patients with a peptide-specific DTH response [2] | Number of individuals with a humoral response to the vaccine peptides, Cancer controls n = 54 (serum antibodies [3]; [6]) | Number of individuals with a humoral response to the vaccine peptides, Normal controls n = 30 (serum antibodies [3]) | Percent of individuals with a humoral response to the vaccine peptides, Normal controls n = 30 (serum antibodies [3]) [%] | Number of individuals with a humoral response to the vaccine peptides, Trial subjects n = 6 (serum antibodies [3]; [7]) | stimulation index (PBMCs [4]; [8]) | other results
1 | H-LEWMGIINPSGGSANYAPKFKGRLTMS-OH [Peptide 1, Heavy CDR2 of human anti-p53 antibody with N-terminus specificity] | positive responses | one animal did not respond | Neg (Neg indicates that induration (if any) was less than 10 mm^2) | Neg (Neg indicates that induration (if any) was less than 10 mm^2) | Neg (Neg indicates that induration (if any) was less than 10 mm^2) | 104 | 24 | Neg (Neg indicates that induration (if any) was less than 10 mm^2) | two | 0 | 3 | 10 | 0 | 10.4 | Number of individuals with a humoral response to the vaccine peptides, Trial subjects n = 6 (serum antibodies [3]; trial subjects who completed four vaccinations, n = 6, detectable response at any time point considered positive, listed as peptide 1): No patient demonstrated a response
2 | H-LEWVGFIRSKAYGAATAYAASMKGRVTI-OH [Peptide 5, Heavy CDR2 of human anti-p53 antibody with central domain specificity] |  | obtained from both sheep | 165 mm^2 | 16 mm^2 | 24 mm^2 | 269 | 373 | 94 mm^2 | all six | 3 | 2 | 6.7 | 2 | 22.2 | Serum antibody titres, first versus second immunized sheep (serum antibodies [1]; two sheep): equivalent; Percent of individuals with a humoral response to the vaccine peptides, Cancer controls n = 54 (serum antibodies [3]; [6]): 5.6%; Isotype of peptide-specific serum antibodies (serum antibodies [3]; subject 015): IgG3; Isotype of peptide-specific serum antibodies (serum antibodies [3]; subject 016): IgG3; Percent of individuals with a humoral response to the vaccine peptides, Trial subjects n = 6 (serum antibodies [3]; [7]): 33.3%; Number of individuals with a humoral response to the vaccine peptides, Trial subjects n = 6 (serum antibodies [3]; trial subjects who completed four vaccinations, n = 6, detectable response at any time point considered positive, listed as peptide 5): two; stimulation index (PBMCs [4]; patient 016, visit 3 (1 month after vaccination 2)): 8.88; stimulation index (PBMCs [4]; patient 016, visit 4 (1 month after vaccination 3)): 64.6; First appearance of peptide-specific proliferative response (PBMCs [4]; patient 016, maximal after three vaccinations): visit 3; Specific proliferative response, % of circulating CD3 and CD4 positive cells (PBMCs [5]): 5.5%
3 | H-YFCSRVKAGGPDYWGQGT-OH [Peptide 6] | positive responses | obtained from both sheep |  |  |  |  |  |  | responses were observed in at least one individual for all of the peptides, except for peptides 3 and 6 | 0 | 0 |  | 0 |  | Response higher in the first immunized sheep, on average (serum antibodies [1]; first versus second sheep): 50%; Number of individuals with a humoral response to the vaccine peptides, Trial subjects n = 6 (serum antibodies [3]; trial subjects who completed four vaccinations, n = 6, detectable response at any time point considered positive, listed as peptide 6): No patient demonstrated a response
